In US6800659B2, “Compounds for modulating cell proliferation” (HSC Research and Development Limited Partnership, priority 2000, dated 2004):

Key:
[1] = system: Philadelphia positive Z119 acute lymphoblastic leukemia cells; experiment: Colony growth of Z119 ALL cells in methylcellulose culture; format: cell-based, human; conditions: low nanomolar doses; colonies at 7 days (FIG. 3)
Experimental: Z119 cells were plated in 1 ml volumes at a density of 1×10^4 cells/ml, in the absence of exogenous growth factors, into 35 mm petri dishes (Nunc, Gibco) containing IMDM (OCl, Toronto) plus 20% FCS (Cansera Rexdale, ON.) in 0.9% (vol/vol) methylcellulose (Fluka, Switzerland) with the indicated concentration of CR4. Cultures were set at 37° C., 5% CO2 in a humidified atmosphere. Colonies consisting of more than 20 cells were counted at 7 days or earlier using an inverted microscope.

[2] = system: OCl-AML-3 acute myeloid leukemia cells; experiment: Colony growth of AML-3 cells in methylcellulose culture; format: cell-based; conditions: 300-600 nM; colonies at 5-6 days (FIG. 4)
Experimental: OCl-AML-3 cells were plated in 35 mm petri dishes (Nunc, Gibco) in 1 ml volumes at a density of 3.3×10^3 cells/ml, in the absence of exogenous growth factors, containing alpha MEM plus 20% FCS (Cansera, Rexdale Ont.), and 0.9% (vol/vol) methylcellulose (Fluka, Switzerland) and the indicated concentrations of CR4. Cell cultures were incubated in a humidified atmosphere at 37° C. with 5% CO2. Colonies containing more than 20 cells were scored, using an inverted microscope, at 5-6 days.

[3] = system: OCl-LY2 lymphoma cells; experiment: In vitro purging of OCl-Ly2 lymphoma cells; format: cell-based; conditions: 5 hours exposure (FIG. 16)
Experimental: For the purging assay, the cells were resuspended in complete medium with or without CR4 as indicated and incubated at 37° C., 5% CO2 for 0-5 hours. Cells were then washed thoroughly with medium to remove CR4, resuspended and plated in 1 ml volumes at 5×10^3 cells/ml, in the absence of exogenous growth factors, into 35 mm petri dishes (Nunc, Gibco) containing IMDM (OCl, Toronto) plus 20% human cord blood plasma in 0.9% (vol/vol) methylcellulose (Fluka, Switzerland). Cultures were set at 37° C., 5% CO2 in a humidified atmosphere. Colonies consisting of more than 20 cells were counted at 5 days or earlier using an inverted microscope.

[4] = system: Philadelphia positive ALL, AML and lymphoma; experiment: High dose in vitro (ex vivo) purging assays, summary; format: cell-based
From the text: […] Cancer cell death was effected by the induction of apoptosis. Accordingly, in another aspect of the invention, there is provided a method for killing cancer cells by ex vivo treatment of bone marrow from a patient with cancer with a compound of the invention, preferably CR4 and CR11 and then re-introducing the treated (or purged) bone marrow into the patient.

Compound: N#C/C(=C\C=C\c1ccc(O)c(O)c1)C(=O)NCc1ccccc1 [CR4, (E,E)-2-(benzylaminocarbonyl)-3-(3,4-dihydroxystyryl)acrylonitrile]
- inhibition of Z119 ALL cell proliferation and survival [1]: significant inhibition
- inhibition of AML-3 cell proliferation and survival [2]: complete inhibition
- killing of OCl-Ly2 cells ([3]; 12.5 μM): significant killing
- killing of OCl-Ly2 cells ([3]; 25-50 μM): 90%
- effectiveness as ex vivo purging agents [4]: effective
- inhibition of growth in purging assays ([4]; high dose (25-50 μM), 2.5 to 5 hour exposure time): > 90%
